Measurements: patent US20220169660A1, “CYCLIC AMINO-PYRAZINECARBOXAMIDE COMPOUNDS AND USES THEREOF” (SILVERBACK THERAPEUTICS, INC., priority 2019, published 2022)

How the values were obtained:
[1] = test system: TGFβ/SMAD Singling Pathway SBE reporter cell line; experiment: TGFβ reporter assay (in vitro small molecule screening); type: cell-based; settings: SBE luciferase reporter cells, TGFβ stimulation, 18 h, luminescence
Method: TGFβ/SMAD Singling Pathway SBE reporter cell line was obtained from BPS Bioscience. Cells were passed, expanded, and stored in liquid nitrogen as per the supplier's instructions with the exception that growth media is changed to DMEM-C with Geneticin (DMEM supplemented with 10% fetal bovine serum, 1×NEAA, 1 mM Pyruvate, 2 mM glutamine, 50 μg/mL penicillin, 50 U/mL streptomycin and 400 μg/mL of Geneticin). The assay media was MEM supplemented with […] fetal bovine serum, 1×NEAA, 1 mM Pyruvate, 50 μg/mL penicillin and 50 U/mL streptomycin.
Test samples (at desired concentrations diluted in assay media) were added to a 96-well assay plate, 20 μL per well. Reporter cells were harvested from the tissue culture flasks by incubation in small quantity of PBS at 37° C. for two minutes after the media in the flask is removed and cells rinsed with PBS. Cells were counted and diluted in the assay media at approximately 0.5×10^6 cells/mL and then 80 μL/well of cells were added to the assay plate containing the 20 μL/well of test samples (or media only), and incubated for approximately 5-6 hours at 37° C. in a 5% CO2 humidified incubator. After that time, 15 μL of TGFβ diluted to 12 ng/mL in the assay media was added to the plate. Controls included TGFβ titration (from 50 to 0 ng/mL) without inhibitors, and media only (without cells, inhibitor or TGFβ). Plates were incubated at 37° C. in a 5% CO2 humidified incubator for 18 h. Luciferase substrate solution is subsequently added at 100 μL per well, incubated in the dark at room temperature for 15 min, and luminescence is measured using a luminometer. EC50 values and curve fits were obtained using Prism (GraphPad Software).

TGFBR2 = target: T1, TGFBR2 (Homo sapiens, UniProt P37173); experiment: TGFBR2 RBC enzyme assay (Reaction Biology Corp.); type: biochemical
T1 construct: purchased Reaction Biology Corp
T1 sequence (P37173 23-567): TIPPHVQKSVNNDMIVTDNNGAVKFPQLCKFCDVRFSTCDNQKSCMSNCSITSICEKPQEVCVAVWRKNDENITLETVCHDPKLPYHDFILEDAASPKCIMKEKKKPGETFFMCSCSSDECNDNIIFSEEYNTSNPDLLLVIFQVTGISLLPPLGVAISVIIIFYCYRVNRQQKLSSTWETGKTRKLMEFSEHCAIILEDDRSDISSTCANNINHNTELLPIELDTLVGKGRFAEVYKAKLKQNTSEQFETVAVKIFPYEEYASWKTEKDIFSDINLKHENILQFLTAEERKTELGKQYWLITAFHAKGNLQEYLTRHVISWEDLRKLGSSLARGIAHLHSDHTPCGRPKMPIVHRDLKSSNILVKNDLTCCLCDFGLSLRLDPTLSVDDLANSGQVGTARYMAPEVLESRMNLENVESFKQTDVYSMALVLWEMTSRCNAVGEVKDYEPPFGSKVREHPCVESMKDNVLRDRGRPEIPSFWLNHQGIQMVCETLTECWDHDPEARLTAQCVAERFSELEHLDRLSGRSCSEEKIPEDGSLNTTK
Method: Compounds of the disclosure were assayed by Reaction Biology Corp. using the TGFBR2 RBC enzyme assay.

Structure (SMILES)	EC50 [1] [µM]	EC50 (TGFBR2) [µM]
CC1CCOc2cccc(c2)-c2cnc(N)c(n2)C(=O)Nc2cnccc2N1C (stereo not drawn) [Compound 18, 2^5-amino-6,7-dimethyl-10-oxa-4,6-diaza-2(2,6)-pyrazina-5(3,4)-pyridina-1(1,3)-benzenacyclodecaphan-3-one]	0.001 to 1	0.001 to 0.1
Nc1ncc2nc1C(=O)Nc1cnccc1O[C@@H]1CN[C@@H](COc3cccc-2c3)C1 (racemic) [Compound 36, (±)-(5^2,5^4-trans)-1^5-amino-3,6-dioxa-8-aza-1(2,6)-pyrazina-7(4,3)-pyridina-5(2,4)-pyrrolidina-2(1,3)-benzenacyclononaphan-9-one]	> 5	> 1
CN1CCOc2ccc(OCCCN)cc2-c2cnc(N)c(n2)C(=O)Nc2cnccc21 [Compound 64, 2^5-amino-1^5-(3-aminopropoxy)-6-methyl-9-oxa-4,6-diaza-2(2,6)-pyrazina-5(3,4)-pyridina-1(1,2)-benzenacyclononaphan-3-one]	0.001 to 1	0.001 to 0.1
CN1CCOc2cccc(c2)-c2cnc(N)c(n2)C(=O)Nc2cnccc21 [Compound 11, 2^5-amino-6-methyl-9-oxa-4,6-diaza-2(2,6)-pyrazina-5(3,4)-pyridina-1(1,3)-benzenacyclononaphan-3-one]	0.001 to 1	0.001 to 0.1
Nc1ncc2nc1C(=O)Nc1cnccc1NCCCCOc1cccc-2c1 [Compound 2, 2^5-amino-11-oxa-4,6-diaza-2(2,6)-pyrazina-5(3,4)-pyridina-1(1,3)-benzenacycloundecaphan-3-one]	> 5	> 1
Nc1ncc2nc1C(=O)Nc1cnccc1OCCOc1cccc-2c1 [Compound 50, 2^5-amino-6,9-dioxa-4-aza-2(2,6)-pyrazina-5(3,4)-pyridina-1(1,3)-benzenacyclononaphan-3-one]	0.001 to 1	0.001 to 0.1
CN1CCCOc2cc(OCCCN3C(=O)c4ccccc4C3=O)cc(c2)-c2cnc(N)c(n2)C(=O)Nc2cnccc21 [Compound 14, 2-(3-((2^5-amino-6-methyl-3-oxo-10-oxa-4,6-diaza-2(2,6)-pyrazina-5(3,4)-pyridina-1(1,3)-benzenacyclodecaphane-1^5-yl)oxy)propyl)isoindoline-1,3-dione]	0.001 to 1	0.001 to 0.1
CCN1CCCOc2cccc(c2)-c2cnc(N)c(n2)C(=O)Nc2cnccc21 [Compound 13, 2^5-amino-6-ethyl-10-oxa-4,6-diaza-2(2,6)-pyrazina-5(3,4)-pyridina-1(1,3)-benzenacyclodecaphan-3-one]	0.001 to 1	0.1 to 1
CN1CCCCc2cc(ccc2OCCCN)-c2cnc(N)c(n2)C(=O)Nc2cnccc21 [Compound 63, 2^5-amino-1^4-(3-aminopropxy)-6-methyl-4,6-diaza-2(2,6)-pyrazina-5(3,4)-pyridina-1(1,3)-benzenacyclodecaphan-3-one]	0.001 to 1	0.001 to 0.1
CC(C)(C)OC(=O)N1C[C@@H]2C[C@H]1COc1cccc(c1)-c1cnc(N)c(n1)C(=O)Nc1cnccc1O2 (racemic) [Compound 37, (±)-tert-butyl(5^2,5^4-cis)-1^5-amino-9-oxo-3,6-dioxa-8-aza-1(2,6)-pyrazina-7(4,3)-pyridina-5(2,4)-pyrrolidina-2(1,3)-benzenacyclononaphane-51-carboxylate]	0.001 to 1	0.1 to 1
CN1CCCNC(=O)c2cc(ccc2OCCCN)-c2cnc(N)c(n2)C(=O)Nc2cnccc21 [Compound 53, 2^5-amino-1^4-(3-aminopropoxy)-6-methyl-4,6,10-triaza-2(2,6)-pyrazina-5(3,4)-pyridina-1(1,3)-benzenacycloundecaphane-3,11-dione]	> 5	0.1 to 1
Cc1ccc2cc1OCCCN(C)c1ccncc1NC(=O)c1nc-2cnc1N [Compound 12, 2^5-amino-1^4,6-dimethyl-10-oxa-4,6-diaza-2(2,6)-pyrazina-5(3,4)-pyridina-1(1,3)-benzenacyclodecaphan-3-one]	0.001 to 1	0.001 to 0.1
CN1CCN(C)c2ccncc2NC(=O)c2nc(cnc2N)-c2ccc(OCCCN)c(c2)C1=O [Compound 56, 2^5-amino-1^4-(3-aminopropoxy)-6,9-dimethyl-4,6,9-triaza-2(2,6)-pyrazina-5(3,4)-pyridina-1(1,3)-benzenacyclodecaphene-3,10-dione]	1 to 5	0.001 to 0.1
Nc1ncc2nc1C(=O)Nc1cnccc1OCCCOc1cccc-2c1 [Compound 21, 2^5-amino-6,10-dioxa-4-aza-2(2,6)-pyrazina-5(3,4)-pyridina-1(1,3)-benzenacyclodecaphan-3-one]	> 5	> 1
Nc1ncc2nc1C(=O)Nc1cnccc1NCCCCCOc1cccc-2c1 [Compound 3, 2^5-amino-12-oxa-4,6-diaza-2(2,6)-pyrazina-5(3,4)-pyridina-1(1,3)-benzenacyclododecaphan-3-one]	> 5	> 1
CN1CCOCc2cccc(c2)-c2cnc(N)c(n2)C(=O)Nc2cnccc21 [Compound 15, 2^5-amino-6-methyl-9-oxa-4,6-diaza-2(2,6)-pyrazina-5(3,4)-pyridina-1(1,3)-benzenacyclodecaphan-3-one]	0.001 to 1	0.001 to 0.1
Nc1ncc2nc1C(=O)Nc1cnccc1SCCCOc1ccc(Br)c-2c1 [Compound 51, 2^5-amino-1^6-bromo-10-oxa-6-thia-4-aza-2(2,6)-pyrazina-5(3,4)-pyridina-1(1,3)-benzenacyclodecaphan-3-one]	0.001 to 1	0.001 to 0.1
Nc1ncc2nc1C(=O)Nc1cnccc1OC[C@@H]1C[C@H](CN1)Oc1cccc-2c1 (racemic) [Compound 40, (±)-(4^3,4^5-trans)-1^5-amino-3,6-dioxa-8-aza-1(2,6)-pyrazina-7(4,3)-pyridina-4(3,5)-pyrrolidina-2(1,3)-benzenacyclononaphan-9-one]	1 to 5	> 1
Nc1ncc2nc1C(=O)Nc1cnccc1NCCOCCOCCOc1cccc-2c1 [Compound 1, 2^5-amino-9,12,15-trioxa-4,6-diaza-2(2,6)-pyrazina-5(3,4)-pyridina-1(1,3)-benzenacyclopentadecaphan-3-one]	> 5	> 1
CN1CCNC(=O)c2cccc(c2)-c2cnc(N)c(n2)C(=O)Nc2cnccc21 [Compound 30, 2^5-amino-6-methyl-4,6,9-triaza-2(2,6)-pyrazina-5(3,4)-pyridina-1(1,3)-benzenacyclodecaphane-3,10-dione]	> 5	> 1
Nc1ncc2nc1C(=O)Nc1cnccc1NCCCOc1cccc-2c1 [Compound 4, 2^5-amino-10-oxa-4,6-diaza-2(2,6)-pyrazina-5(3,4)-pyridina-1(1,3)-benzenacyclodecaphan-3-one]	0.001 to 1	0.001 to 0.1
CN1CCOc2cc(OCCCN)ccc2-c2cnc(N)c(n2)C(=O)Nc2cnccc21 [Compound 65, 2^5-amino-1^4-(3-aminopropoxy)-6-methyl-9-oxa-4,6-diaza-2(2,6)-pyrazina-5(3,4)-pyridina-1(1,2)-benzenacyclononaphan-3-one]	0.001 to 1	0.001 to 0.1
CN1CCCCCOc2cccc(c2)-c2cnc(N)c(n2)C(=O)Nc2cnccc21 [Compound 9, 2^5-amino-6-methyl-12-oxa-4,6-diaza-2(2,6)-pyrazina-5(3,4)-pyridina-1(1,3)-benzenacyclododecaphan-3-one]	0.001 to 1	0.001 to 0.1
CN1CCCOc2cc(OCCCN)cc(c2)-c2cnc(N)c(n2)C(=O)Nc2cnccc21 [Compound 16, 2^5-amino-1^5-(3-aminopropoxy)-6-methyl-10-oxa-4,6-diaza-2(2,6)-pyrazina-5(3,4)-pyridina-1(1,3)-benzenacyclodecaphan-3-one]	0.001 to 1	0.001 to 0.1
CC(C)(C)OC(=O)N1C[C@H]2C[C@H]1COc1ccncc1NC(=O)c1nc(cnc1N)-c1cccc(c1)O2 (racemic) [Compound 39, (±)-tert-butyl(4^3,4^5-trans)-1^5-amino-9-oxo-3,6-dioxa-8-aza-1(2,6)-pyrazina-7(4,3)-pyridina-4(3,5)-pyrrolidina-2(1,3)-benzenacyclononaphane-41-carboxylate]	> 5	> 1
Nc1ncc2nc1C(=O)Nc1cnccc1N1CCOC(COc3cccc-2c3)C1 (stereo not drawn) [Compound 8, 5^3-amino-7-oxa-3-aza-1(4,2)-morpholina-5(2,6)-pyrazina-2(4,3)-pyridina-6(1,3)-benzenacyclooctaphan-4-one]	1 to 5	0.1 to 1
CN1C[C@@H](CN)Oc2ccccc2-c2cnc(N)c(n2)C(=O)Nc2cnccc21 [Compound 60, (R)-2^5-amino-8-(aminomethyl)-6-methyl-9-oxa-4,6-diaza-2(2,6)-pyrazina-5(3,4)-pyridina-1(1,2)-benzenacyclononaphan-3-one]	1 to 5	> 1
